Target: F508del-CFTR (Homo sapiens, UniProt P13569, DEL508-508)
Test: HS-YFP iodide-influx fluorescence quenching assay, […] h incubation, Hill fit
Type: cell-based
Conditions: read-out: half-effective concentration

Sequence of F508del-CFTR (P13569 with tags, fused parts or gaps DEL508-508): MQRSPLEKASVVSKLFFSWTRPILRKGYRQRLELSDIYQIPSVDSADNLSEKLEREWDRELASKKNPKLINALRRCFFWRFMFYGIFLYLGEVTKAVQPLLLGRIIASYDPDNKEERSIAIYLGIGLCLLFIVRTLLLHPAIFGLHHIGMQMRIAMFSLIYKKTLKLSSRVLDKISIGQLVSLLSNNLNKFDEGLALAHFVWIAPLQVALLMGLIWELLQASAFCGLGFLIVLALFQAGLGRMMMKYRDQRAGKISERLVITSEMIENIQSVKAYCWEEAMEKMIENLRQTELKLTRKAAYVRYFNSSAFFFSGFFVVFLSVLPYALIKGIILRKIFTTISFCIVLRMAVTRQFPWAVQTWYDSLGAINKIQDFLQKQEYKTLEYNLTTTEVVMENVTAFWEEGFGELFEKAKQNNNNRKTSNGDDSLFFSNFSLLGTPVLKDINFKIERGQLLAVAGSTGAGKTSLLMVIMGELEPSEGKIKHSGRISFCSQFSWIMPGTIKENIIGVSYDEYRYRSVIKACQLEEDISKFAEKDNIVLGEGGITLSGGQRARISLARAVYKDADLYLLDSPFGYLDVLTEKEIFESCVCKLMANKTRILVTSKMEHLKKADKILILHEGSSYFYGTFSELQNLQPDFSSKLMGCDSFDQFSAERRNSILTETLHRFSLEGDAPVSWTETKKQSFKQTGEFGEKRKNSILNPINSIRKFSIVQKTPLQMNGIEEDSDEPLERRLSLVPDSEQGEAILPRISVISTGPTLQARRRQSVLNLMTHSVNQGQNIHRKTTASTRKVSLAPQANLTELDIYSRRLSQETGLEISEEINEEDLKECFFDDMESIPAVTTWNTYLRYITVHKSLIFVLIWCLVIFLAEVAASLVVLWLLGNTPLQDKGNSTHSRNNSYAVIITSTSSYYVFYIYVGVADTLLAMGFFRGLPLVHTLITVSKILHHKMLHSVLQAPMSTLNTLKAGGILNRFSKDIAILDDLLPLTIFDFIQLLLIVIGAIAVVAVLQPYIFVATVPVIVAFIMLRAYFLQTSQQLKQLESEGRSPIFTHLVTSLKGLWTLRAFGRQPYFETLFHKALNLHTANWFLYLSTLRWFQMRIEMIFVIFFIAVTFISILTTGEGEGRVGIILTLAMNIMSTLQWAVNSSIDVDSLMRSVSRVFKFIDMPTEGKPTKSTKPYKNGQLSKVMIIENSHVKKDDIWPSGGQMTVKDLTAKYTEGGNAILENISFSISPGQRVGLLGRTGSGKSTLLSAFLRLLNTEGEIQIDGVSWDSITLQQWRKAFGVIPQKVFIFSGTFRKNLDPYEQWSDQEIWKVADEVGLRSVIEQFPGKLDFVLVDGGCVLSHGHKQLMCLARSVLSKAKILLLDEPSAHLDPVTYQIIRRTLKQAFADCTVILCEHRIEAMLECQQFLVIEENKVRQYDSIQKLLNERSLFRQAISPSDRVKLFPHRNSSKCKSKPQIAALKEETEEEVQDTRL

EC50: 5 µM
SMILES: COc1ccc(Cl)cc1NC(=O)c1cc2c([nH]1)-c1nc(NC(=O)C(C)(C)C)sc1CC2 [compound 44, N-(5-Chloro-2-Methoxyphenyl)-2-[(2,2-Dimethylpropanoyl)Amino]-5,8-Dihydro-4H-[1,3]Thiazolo[5,4-g]Indole-7-Carboxamide]
